Experiments:
PANC-1 = test: Selectivity for human PANC1 cells over mouse C3H10/T1/2 cells
[1] = Selectivity for Gli over Gli2
Zinc finger protein GLI1 = target: T1, Zinc finger protein GLI1 (Homo sapiens, UniProt P08151); test: Inhibition of Gli1-mediated transcription expressed in human PANC1 cells; assay type: cell-based; conditions: panc-1
T1 sequence (P08151 whole entry): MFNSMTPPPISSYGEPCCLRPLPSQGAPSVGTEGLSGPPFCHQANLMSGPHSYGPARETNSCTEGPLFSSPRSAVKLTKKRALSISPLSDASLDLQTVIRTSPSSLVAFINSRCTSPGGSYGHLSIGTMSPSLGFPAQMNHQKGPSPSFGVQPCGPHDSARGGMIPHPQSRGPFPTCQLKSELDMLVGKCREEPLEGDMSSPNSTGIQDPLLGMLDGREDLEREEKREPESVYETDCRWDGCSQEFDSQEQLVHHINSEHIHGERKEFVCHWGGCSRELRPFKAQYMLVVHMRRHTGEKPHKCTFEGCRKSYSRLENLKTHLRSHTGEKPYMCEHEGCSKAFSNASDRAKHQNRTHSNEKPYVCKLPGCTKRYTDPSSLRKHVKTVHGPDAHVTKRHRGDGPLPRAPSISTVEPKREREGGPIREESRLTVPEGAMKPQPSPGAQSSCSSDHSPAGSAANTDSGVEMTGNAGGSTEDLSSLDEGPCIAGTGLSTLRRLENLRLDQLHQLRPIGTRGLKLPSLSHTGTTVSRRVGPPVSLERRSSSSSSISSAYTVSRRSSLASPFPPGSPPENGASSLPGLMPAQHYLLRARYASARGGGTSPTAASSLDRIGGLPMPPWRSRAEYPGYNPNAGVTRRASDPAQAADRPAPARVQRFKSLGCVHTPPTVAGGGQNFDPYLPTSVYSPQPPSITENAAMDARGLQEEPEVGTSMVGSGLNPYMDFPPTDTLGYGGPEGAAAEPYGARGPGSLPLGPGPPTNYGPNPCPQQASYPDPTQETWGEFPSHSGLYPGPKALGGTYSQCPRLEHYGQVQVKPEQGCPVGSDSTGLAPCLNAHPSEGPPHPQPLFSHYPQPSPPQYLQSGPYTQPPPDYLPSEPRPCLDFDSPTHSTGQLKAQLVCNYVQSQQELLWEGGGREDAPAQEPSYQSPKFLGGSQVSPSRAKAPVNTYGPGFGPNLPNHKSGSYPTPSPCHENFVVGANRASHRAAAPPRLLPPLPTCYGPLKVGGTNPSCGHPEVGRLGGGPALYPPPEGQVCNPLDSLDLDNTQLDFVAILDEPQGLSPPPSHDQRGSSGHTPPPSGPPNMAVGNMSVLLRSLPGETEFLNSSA

Mus musculus = test: Antitumor activity against transgenic mouse medulloblastoma model with loss of function mutations in Ptch1 and Hic1 gene administered as once daily oral dose; assay type: functional
[2] = Growth inhibition of human D283 MED cells; assay type: functional
[3] = Growth inhibition of human Panc 05.04 cells; assay type: functional
[4] = Growth inhibition of human L3.6p1 cells; assay type: functional
Daoy = test: Growth inhibition of human DaOY cells; assay type: functional
BXPC-3 [5] = test: In vivo antitumor activity against human BxPC3 cells assessed as inhibition of tumor growth; assay type: functional
BXPC-3 [6] = test: Growth inhibition of human BxPC3 cells; assay type: functional
[7] = In vivo antitumor activity against human L3.6s1 cells assessed as inhibition of tumor growth; assay type: functional
[8] = Antitumor activity against human medulloblastoma cells; assay type: functional; conditions: Medulloblastoma cell

Question: For `O=C1NCc2c1c1c3ccccc3[nH]c1c1[nH]c3ccccc3c21` [STAUROSPORINONE], which “Selectivity Index” value (PANC-1) is on record?
Answer: 3

Question: With `C[C@]12C(=O)C=CCC1=CC[C@@H]1[C@@H]2CC[C@]2(O)C(=O)O[C@@]3(C)[C@H]4C[C@]5(C)[C@@H](CO[C@@]16O[C@@]32[C@H]5C6=O)C(=O)O4` [PHYSALIN B] as the compound, how does the Ratio IC50 [1] read?
Answer: 2

Question: What about the “Selectivity Index” value (PANC-1) of the same compound?
Answer: 3

Question: With `C=C(C)[C@@H]1CC[C@]2(C(=O)O)CC[C@]3(C)[C@H](CC[C@@H]4[C@@]5(C)[C@H](C=O)[C@@H](O)C(C)(C)[C@@H]5CC[C@]43C)[C@@H]12` [COLUBRINIC ACID] as the compound, how does the IC50 (Zinc finger protein GLI1) read?
Answer: 38000 nM

Question: Which ED50 (Mus musculus) does the source give for `CC1=C2C[C@H]3[C@@H](CC[C@@H]4CNC(=O)CC[C@@]43C)[C@@H]2CC[C@@]2(C1)O[C@@H]1C[C@H](C)CN[C@H]1[C@H]2C` here?
Answer: < 7.5 mg/kg

Question: Which results are given for `CCOc1ccc(Nc2nc(-c3c(C)nc4ccccn34)cs2)cc1`?
Answer: GI50 [2]: 3 nM; GI50 [3]: 3 nM; GI50 [4]: 3 nM; GI50 (Daoy): 3 nM; inhibition (INH) (BXPC-3 [5]): 30%; GI50 (BXPC-3 [6]): 3 nM; inhibition (INH) [7]: 30%

Question: With `C=C(C)[C@@H]1CC[C@]2(C(=O)O)CC[C@]3(C)[C@H](CC[C@@H]4[C@@]5(C)CC[C@H](O)C(C)(C)[C@@H]5CC[C@]43C)[C@@H]12` [BETULINIC ACID] as the compound, how does the IC50 (Zinc finger protein GLI1) read?
Answer: 32000 nM

Question: With `C=C(C)[C@@H]1CC[C@]2(C(=O)O)CC[C@]3(C)[C@H](CC[C@@H]4[C@@]5(C)C[C@@H](O)[C@H](O)C(C)(C)[C@@H]5CC[C@]43C)[C@@H]12` [ALPHITOLIC ACID] as the compound, how does the IC50 (Zinc finger protein GLI1) read?
Answer: 42000 nM

Question: Which IC50 [8] does the source give for `COc1cc(OC)cc(C(=O)Nc2ccc(Cl)c(-c3nc4cc(N(C)C)ccc4[nH]3)c2)c1` here?
Answer: 10000 nM

Question: For `C[C@@]12C[C@H]3OC(=O)[C@@H]1CO[C@]14O[C@]5([C@H]2C1=O)[C@@](O)(CC[C@H]1[C@H]4C[C@H]2O[C@]24CC=CC(=O)[C@]14C)C(=O)O[C@@]35C` [PHYSALIN F], which Ratio IC50 [1] is on record?
Answer: 2

Question: What about the “Selectivity Index” value (PANC-1) of the same compound?
Answer: 3

From ChEMBL document CHEMBL1138588, “Hedgehog-Gli signaling pathway inhibitors as anticancer agents” (J Med Chem, 2009)
